Source: PubChem BioAssay (NCI)
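Cultured in 96-well plates, cells were exposed to test compound for 48 hours across five concentrations. TGI is the concentration that stops growth completely.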

Legend:
Experiment in all cases: NCI anticancer screen, dose series, 48 h
786-0 renal = tested on: 786-0 renal
SK-MEL-28 melanoma = tested on: SK-MEL-28 melanoma
MDA-N = tested on: MDA-N
NCI-H460 lung = tested on: NCI-H460 lung
MOLT-4 leukemia = tested on: MOLT-4 leukemia
NCI-H226 lung = tested on: NCI-H226 lung
UACC-257 melanoma = tested on: UACC-257 melanoma
OVCAR-5 ovarian = tested on: OVCAR-5 ovarian
LOX IMVI melanoma = tested on: LOX IMVI melanoma
SK-MEL-5 melanoma = tested on: SK-MEL-5 melanoma
A549 NSCLC = tested on: A549 NSCLC
OVCAR-3 ovarian = tested on: OVCAR-3 ovarian
ACHN renal = tested on: ACHN renal
HT29 colon = tested on: HT29 colon
MCF7 breast = tested on: MCF7 breast
HOP-92 NSCLC = tested on: HOP-92 NSCLC
DU-145 prostate = tested on: DU-145 prostate
SNB-19 CNS = tested on: SNB-19 CNS
NCI-H522 lung = tested on: NCI-H522 lung
U251 CNS = tested on: U251 CNS
CCRF-CEM leukemia = tested on: CCRF-CEM leukemia
SN12C renal = tested on: SN12C renal
RXF 393 renal = tested on: RXF 393 renal
A498 renal = tested on: A498 renal
OVCAR-4 ovarian = tested on: OVCAR-4 ovarian
T-47D breast = tested on: T-47D breast
IGROV1 ovarian = tested on: IGROV1 ovarian
SK-MEL-2 melanoma = tested on: SK-MEL-2 melanoma
SK-OV-3 ovarian = tested on: SK-OV-3 ovarian
CAKI-1 renal = tested on: CAKI-1 renal
RPMI-8226 leukemia = tested on: RPMI-8226 leukemia
NCI-H23 lung = tested on: NCI-H23 lung
COLO 205 colon = tested on: COLO 205 colon
SNB-75 CNS = tested on: SNB-75 CNS
BT-549 breast = tested on: BT-549 breast
HCT-15 colon = tested on: HCT-15 colon
UO-31 renal = tested on: UO-31 renal
HOP-62 NSCLC = tested on: HOP-62 NSCLC
MDA-MB-435 = tested on: MDA-MB-435
KM12 colon = tested on: KM12 colon
SR leukemia = tested on: SR leukemia
SF-268 CNS = tested on: SF-268 CNS
K-562 leukemia = tested on: K-562 leukemia
TK-10 renal = tested on: TK-10 renal
MDA-MB-231 breast = tested on: MDA-MB-231 breast
HCC-2998 colon = tested on: HCC-2998 colon
EKVX NSCLC = tested on: EKVX NSCLC
NCI/ADR-RES ovarian = tested on: NCI/ADR-RES ovarian
OVCAR-8 ovarian = tested on: OVCAR-8 ovarian
UACC-62 melanoma = tested on: UACC-62 melanoma
SW-620 colon = tested on: SW-620 colon
PC-3 prostate = tested on: PC-3 prostate
HCT-116 colon = tested on: HCT-116 colon
M14 melanoma = tested on: M14 melanoma
SF-295 CNS = tested on: SF-295 CNS
SF-539 CNS = tested on: SF-539 CNS
MALME-3M melanoma = tested on: MALME-3M melanoma
HS 578T breast = tested on: HS 578T breast

Structure (SMILES): CCCCCCNC(=O)CCC(NC(=O)c1ccc(N(C)Cc2cnc3nc(N)nc(N)c3n2)cc1)C(=O)NCCCCCC (centres undefined)
- TGI (786-0 renal): > 100 µM
- TGI (SK-MEL-28 melanoma): > 100 µM
- TGI (MDA-N): > 100 µM
- TGI (NCI-H460 lung): > 100 µM
- TGI (MOLT-4 leukemia): > 100 µM
- TGI (NCI-H226 lung): > 100 µM
- TGI (UACC-257 melanoma): > 100 µM
- TGI (OVCAR-5 ovarian): > 100 µM
- TGI (LOX IMVI melanoma): > 100 µM
- TGI (SK-MEL-5 melanoma): > 100 µM
- TGI (A549 NSCLC): > 100 µM
- TGI (OVCAR-3 ovarian): > 100 µM
- TGI (ACHN renal): > 100 µM
- TGI (HT29 colon): > 100 µM
- TGI (MCF7 breast): 34.1 µM
- TGI (HOP-92 NSCLC): > 100 µM
- TGI (DU-145 prostate): > 100 µM
- TGI (SNB-19 CNS): > 100 µM
- TGI (NCI-H522 lung): > 100 µM
- TGI (U251 CNS): > 100 µM
- TGI (CCRF-CEM leukemia): > 100 µM
- TGI (SN12C renal): > 100 µM
- TGI (RXF 393 renal): > 100 µM
- TGI (A498 renal): > 100 µM
- TGI (OVCAR-4 ovarian): > 100 µM
- TGI (T-47D breast): > 100 µM
- TGI (IGROV1 ovarian): 97.2 µM
- TGI (SK-MEL-2 melanoma): > 100 µM
- TGI (SK-OV-3 ovarian): 37.2 µM
- TGI (CAKI-1 renal): > 100 µM
- TGI (RPMI-8226 leukemia): > 100 µM
- TGI (NCI-H23 lung): > 100 µM
- TGI (COLO 205 colon): > 100 µM
- TGI (SNB-75 CNS): > 100 µM
- TGI (BT-549 breast): > 100 µM
- TGI (HCT-15 colon): > 100 µM
- TGI (UO-31 renal): > 100 µM
- TGI (HOP-62 NSCLC): > 100 µM
- TGI (MDA-MB-435): > 100 µM
- TGI (KM12 colon): > 100 µM
- TGI (SR leukemia): > 100 µM
- TGI (SF-268 CNS): > 100 µM
- TGI (K-562 leukemia): > 100 µM
- TGI (TK-10 renal): > 100 µM
- TGI (MDA-MB-231 breast): > 100 µM
- TGI (HCC-2998 colon): > 100 µM
- TGI (EKVX NSCLC): > 100 µM
- TGI (NCI/ADR-RES ovarian): > 100 µM
- TGI (OVCAR-8 ovarian): > 100 µM
- TGI (UACC-62 melanoma): > 100 µM
- TGI (SW-620 colon): > 100 µM
- TGI (PC-3 prostate): > 100 µM
- TGI (HCT-116 colon): > 100 µM
- TGI (M14 melanoma): > 100 µM
- TGI (SF-295 CNS): 30.3 µM

Structure (SMILES): O=C(O)C[C@@H]1[C@@H](O)[C@@H](O)CN2C(=O)c3ccccc3[C@H]12
- TGI (786-0 renal): > 100 µM
- TGI (SK-MEL-28 melanoma): > 100 µM
- TGI (MDA-N): > 100 µM
- TGI (SF-539 CNS): > 100 µM
- TGI (NCI-H460 lung): > 100 µM
- TGI (MOLT-4 leukemia): > 100 µM
- TGI (NCI-H226 lung): > 100 µM
- TGI (UACC-257 melanoma): > 100 µM
- TGI (OVCAR-5 ovarian): > 100 µM
- TGI (LOX IMVI melanoma): > 100 µM
- TGI (SK-MEL-5 melanoma): > 100 µM
- TGI (A549 NSCLC): > 100 µM
- TGI (ACHN renal): > 100 µM
- TGI (HT29 colon): > 100 µM
- TGI (MCF7 breast): > 100 µM
- TGI (DU-145 prostate): > 100 µM
- TGI (SNB-19 CNS): > 100 µM
- TGI (NCI-H522 lung): > 100 µM
- TGI (U251 CNS): > 100 µM
- TGI (SN12C renal): > 100 µM
- TGI (RXF 393 renal): > 100 µM
- TGI (A498 renal): > 100 µM
- TGI (OVCAR-4 ovarian): > 100 µM
- TGI (T-47D breast): > 100 µM
- TGI (IGROV1 ovarian): > 100 µM
- TGI (SK-MEL-2 melanoma): > 100 µM
- TGI (SK-OV-3 ovarian): > 100 µM
- TGI (CAKI-1 renal): > 100 µM
- TGI (RPMI-8226 leukemia): > 100 µM
- TGI (NCI-H23 lung): > 100 µM
- TGI (COLO 205 colon): > 100 µM
- TGI (SNB-75 CNS): > 100 µM
- TGI (BT-549 breast): > 100 µM
- TGI (HCT-15 colon): > 100 µM
- TGI (UO-31 renal): > 100 µM
- TGI (HOP-62 NSCLC): > 100 µM
- TGI (MDA-MB-435): > 100 µM
- TGI (KM12 colon): > 100 µM
- TGI (SR leukemia): > 100 µM
- TGI (SF-268 CNS): > 100 µM
- TGI (K-562 leukemia): > 100 µM
- TGI (TK-10 renal): > 100 µM
- TGI (MDA-MB-231 breast): > 100 µM
- TGI (HCC-2998 colon): > 100 µM
- TGI (EKVX NSCLC): > 100 µM
- TGI (NCI/ADR-RES ovarian): > 100 µM
- TGI (OVCAR-8 ovarian): > 100 µM
- TGI (UACC-62 melanoma): > 100 µM
- TGI (SW-620 colon): > 100 µM
- TGI (PC-3 prostate): > 100 µM
- TGI (MALME-3M melanoma): > 100 µM
- TGI (HCT-116 colon): > 100 µM
- TGI (M14 melanoma): > 100 µM
- TGI (SF-295 CNS): > 100 µM

Structure (SMILES): Cc1c(-c2ccccc2)nn2cc(-c3ccccc3)nnc12
- TGI (786-0 renal): > 100 µM
- TGI (SK-MEL-28 melanoma): > 100 µM
- TGI (MDA-N): > 100 µM
- TGI (NCI-H460 lung): 51.2 µM
- TGI (MOLT-4 leukemia): > 100 µM
- TGI (NCI-H226 lung): 49.5 µM
- TGI (UACC-257 melanoma): > 100 µM
- TGI (OVCAR-5 ovarian): > 100 µM
- TGI (LOX IMVI melanoma): 41.1 µM
- TGI (SK-MEL-5 melanoma): 41.4 µM
- TGI (A549 NSCLC): 52.5 µM
- TGI (OVCAR-3 ovarian): > 100 µM
- TGI (ACHN renal): > 100 µM
- TGI (HT29 colon): > 100 µM
- TGI (HOP-92 NSCLC): 88.3 µM
- TGI (DU-145 prostate): > 100 µM
- TGI (SNB-19 CNS): > 100 µM
- TGI (NCI-H522 lung): 55 µM
- TGI (U251 CNS): 85.7 µM
- TGI (CCRF-CEM leukemia): > 100 µM
- TGI (SN12C renal): > 100 µM
- TGI (RXF 393 renal): 47.8 µM
- TGI (A498 renal): > 100 µM
- TGI (OVCAR-4 ovarian): > 100 µM
- TGI (T-47D breast): > 100 µM
- TGI (IGROV1 ovarian): > 100 µM
- TGI (SK-MEL-2 melanoma): 47 µM
- TGI (SK-OV-3 ovarian): > 100 µM
- TGI (CAKI-1 renal): > 100 µM
- TGI (RPMI-8226 leukemia): > 100 µM
- TGI (NCI-H23 lung): > 100 µM
- TGI (COLO 205 colon): 62 µM
- TGI (SNB-75 CNS): > 100 µM
- TGI (BT-549 breast): 87.3 µM
- TGI (HCT-15 colon): 44.5 µM
- TGI (UO-31 renal): > 100 µM
- TGI (HOP-62 NSCLC): > 100 µM
- TGI (MDA-MB-435): > 100 µM
- TGI (KM12 colon): > 100 µM
- TGI (SR leukemia): > 100 µM
- TGI (SF-268 CNS): > 100 µM
- TGI (K-562 leukemia): > 100 µM
- TGI (TK-10 renal): > 100 µM
- TGI (MDA-MB-231 breast): 62.9 µM
- TGI (HCC-2998 colon): 34 µM
- TGI (NCI/ADR-RES ovarian): > 100 µM
- TGI (OVCAR-8 ovarian): > 100 µM
- TGI (UACC-62 melanoma): 92.3 µM
- TGI (SW-620 colon): 49.5 µM
- TGI (HS 578T breast): 75.6 µM
- TGI (PC-3 prostate): > 100 µM
- TGI (MALME-3M melanoma): 39.6 µM
- TGI (HCT-116 colon): > 100 µM
- TGI (M14 melanoma): > 100 µM
- TGI (SF-295 CNS): > 100 µM
